Results from ChEMBL document CHEMBL1156409, “Durhamycin A, a potent inhibitor of HIV Tat transactivation” (J Nat Prod, 2002).
pIC50: −log10 of the molar value.

Key:
[1] = Inhibition of HIV Tat transactivation in human 63A9 cells by luciferase based reporter gene assay; type: cell-based, Human immunodeficiency virus; settings: for pIC50: Human immunodeficiency virus 1, 63A9, read-out: IC50
[2] = Cytotoxicity against human HeLa P4/P5 cells up to 5 uM; type: cell-based
[3] = tested on: Human immunodeficiency virus; experiment: Antiviral activity against HIV H9/3B in HeLa P4/P5 cells after 48 hrs by vertical assay; type: functional, organism-based; settings: Human immunodeficiency virus 1, H9/3B
[4] = Cytotoxicity against human 63A9 cells at 25 uM by MTS assay; type: cell-based; settings: 63a9, 25 µM

Row | pIC50 [1] | IC50 ([1]; 63a9) | pIC50 [3] | Compound | Activity [2] | Activity [4]
1 | 7.32 | – | – | CCC(C)c1c(O[C@H]2C[C@@H](O[C@H]3C[C@@H](O)[C@H](O)[C@@H](C)O3)[C@H](O)[C@@H](C)O2)cc2cc3c(c(O)c2c1O)C(=O)C(O[C@H]1C[C@@H](O[C@H]2C[C@@H](O[C@H]4C[C@@H](O)[C@H](O)[C@@H](C)O4)[C@@H](OC(C)=O)[C@@H](C)O2)[C@H](O)[C@@H](C)O1)C(C(OC)C(=O)C(O)C(C)O)C3 (stereo partly specified) [DURHAMYCIN B] | – | –
2 | – | Not Active | – | CCC(C)c1c(O)cc2cc3c(c(O)c2c1O)C(=O)C(O)C(C(OC)C(=O)C(O)C(C)O)C3 (stereo unspecified) | – | –
3 | 8.32 | – | 7.94 | CCC(C)c1c(O[C@H]2C[C@@H](O[C@H]3C[C@@H](O)[C@H](O)[C@@H](C)O3)[C@H](O)[C@@H](C)O2)cc2cc3c(c(O)c2c1O)C(=O)C(O[C@H]1C[C@@H](O[C@H]2C[C@@H](O[C@H]4C[C@@H](O[C@H]5C[C@@H](O)[C@H](O)[C@@H](C)O5)[C@H](O)[C@@H](C)O4)[C@@H](OC(C)=O)[C@@H](C)O2)[C@H](O)[C@@H](C)O1)C(C(OC)C(=O)C(O)C(C)O)C3 (stereo partly specified) [DURHAMYCIN A] | Non-toxic | Non-toxic
